Reference: ChEMBL document CHEMBL1142912, “Novel piperazines: potent melanocortin-4 receptor antagonists with anxiolytic-like activity” (Bioorg Med Chem, 2007)
The source made the active and inactive calls. No cut-off for these calls is given here.

How the values were obtained:
Melanocortin receptor 4 = Melanocortin receptor 4 (Homo sapiens, UniProt P32245); assay: Displacement of [125I][Nle4,D-Phe7]alphaMSH from human MC4R expressed in COS7 cells; format: cell-based, COS-7
Histamine H1 receptor = Histamine H1 receptor (Rattus norvegicus, UniProt P31390); assay: Displacement of [3H]pyrilamine from histamine H1 receptor in rat brain membrane; format: cell membranes
[1] = target: T1, Adrenergic receptor alpha-1 (Rattus norvegicus, UniProt P15823+P23944+P43140); assay: Displacement of [3H]prazosin from Adrenergic alpha-1 receptor in rat cortical membrane; format: cell membranes
T1 sequence (P15823 whole entry): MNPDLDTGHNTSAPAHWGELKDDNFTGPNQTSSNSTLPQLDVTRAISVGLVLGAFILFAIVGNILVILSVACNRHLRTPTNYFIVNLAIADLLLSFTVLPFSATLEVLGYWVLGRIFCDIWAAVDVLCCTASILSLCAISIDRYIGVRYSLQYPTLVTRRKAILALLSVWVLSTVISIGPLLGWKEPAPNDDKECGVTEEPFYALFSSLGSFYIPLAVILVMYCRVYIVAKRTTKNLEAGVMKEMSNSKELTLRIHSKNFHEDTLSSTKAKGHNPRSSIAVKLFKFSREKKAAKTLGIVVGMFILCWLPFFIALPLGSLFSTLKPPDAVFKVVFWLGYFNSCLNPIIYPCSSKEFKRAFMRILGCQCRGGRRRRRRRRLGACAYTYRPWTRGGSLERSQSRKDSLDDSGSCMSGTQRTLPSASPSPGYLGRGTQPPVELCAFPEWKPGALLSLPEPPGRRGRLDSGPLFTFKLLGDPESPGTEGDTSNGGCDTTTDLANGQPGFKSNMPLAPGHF
T1 sequence (P23944 whole entry): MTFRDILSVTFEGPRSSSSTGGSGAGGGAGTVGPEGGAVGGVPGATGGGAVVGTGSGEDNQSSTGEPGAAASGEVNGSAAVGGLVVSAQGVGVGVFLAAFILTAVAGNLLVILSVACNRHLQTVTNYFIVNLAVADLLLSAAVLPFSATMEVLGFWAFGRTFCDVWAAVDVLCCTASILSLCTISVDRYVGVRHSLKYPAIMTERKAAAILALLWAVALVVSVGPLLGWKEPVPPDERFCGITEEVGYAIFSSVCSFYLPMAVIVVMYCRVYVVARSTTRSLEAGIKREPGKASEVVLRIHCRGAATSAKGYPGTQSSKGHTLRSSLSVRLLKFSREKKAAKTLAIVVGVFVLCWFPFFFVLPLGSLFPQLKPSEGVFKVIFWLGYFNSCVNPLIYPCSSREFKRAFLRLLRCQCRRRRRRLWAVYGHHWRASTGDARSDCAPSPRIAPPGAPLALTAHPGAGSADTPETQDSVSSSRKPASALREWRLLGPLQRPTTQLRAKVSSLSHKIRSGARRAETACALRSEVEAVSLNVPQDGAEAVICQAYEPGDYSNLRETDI
T1 sequence (P43140 whole entry): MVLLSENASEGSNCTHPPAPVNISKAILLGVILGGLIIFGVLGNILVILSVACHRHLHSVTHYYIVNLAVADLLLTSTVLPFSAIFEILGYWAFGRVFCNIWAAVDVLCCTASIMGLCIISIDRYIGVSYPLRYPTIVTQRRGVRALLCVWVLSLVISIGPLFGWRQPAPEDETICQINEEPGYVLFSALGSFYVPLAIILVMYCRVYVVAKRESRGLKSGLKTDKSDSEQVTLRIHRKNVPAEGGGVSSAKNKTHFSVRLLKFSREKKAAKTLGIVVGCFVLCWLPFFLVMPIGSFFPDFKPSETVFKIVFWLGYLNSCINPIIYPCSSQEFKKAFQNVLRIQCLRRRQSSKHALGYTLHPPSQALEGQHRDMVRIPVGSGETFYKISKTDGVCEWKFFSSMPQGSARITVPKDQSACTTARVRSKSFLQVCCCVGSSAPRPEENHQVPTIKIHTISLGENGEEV

Mu-type opioid receptor = Mu-type opioid receptor (Rattus norvegicus, UniProt P33535); assay: Displacement of [3H]DAMGO from mu opioid receptor in rat brain membrane; format: cell membranes
[2] = target: Norepinephrine transporter (Rattus norvegicus, UniProt Q9WTR4); assay: Displacement of [3H]nisoxetine from NET in rat cortical membrane; format: cell membranes
[3] = target: Sodium-dependent serotonin transporter (Rattus norvegicus, UniProt P31652); assay: Displacement of [3H]paroxetine from serotonin transporter in rat cortical membrane; format: cell membranes
[4] = target: Delta-type opioid receptor (Rattus norvegicus, UniProt P33533); assay: Displacement of [3H]DPDPE from delta opioid receptor in rat brain membrane; format: cell membranes
D(2) dopamine receptor = D(2) dopamine receptor (Rattus norvegicus, UniProt P61169); assay: Displacement of [3H]raclopride from dopamine receptor D2 in rat striatal membrane; format: cell membranes, Striatum
Rattus norvegicus = assay: Reversal of stress-induced anxiety-like behavior in Sprague-Dawley rat at 1 mg/kg, po; format: functional, organism-based; parameters: dose 1 mg/kg

D(2) dopamine receptor, sequence (P61169 whole entry): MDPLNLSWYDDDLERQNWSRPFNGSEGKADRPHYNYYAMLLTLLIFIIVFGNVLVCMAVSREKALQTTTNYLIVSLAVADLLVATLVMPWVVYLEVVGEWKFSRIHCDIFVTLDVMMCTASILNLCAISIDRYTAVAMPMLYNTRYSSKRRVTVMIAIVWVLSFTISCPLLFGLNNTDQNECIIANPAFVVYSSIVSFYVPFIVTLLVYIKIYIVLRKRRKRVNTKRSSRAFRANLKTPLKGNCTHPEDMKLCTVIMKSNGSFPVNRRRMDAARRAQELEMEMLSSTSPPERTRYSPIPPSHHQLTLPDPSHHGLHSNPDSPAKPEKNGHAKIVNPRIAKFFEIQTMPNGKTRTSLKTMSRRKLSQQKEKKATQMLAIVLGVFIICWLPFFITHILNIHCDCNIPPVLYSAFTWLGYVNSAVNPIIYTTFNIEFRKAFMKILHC
Sodium-dependent serotonin transporter, sequence (P31652 whole entry): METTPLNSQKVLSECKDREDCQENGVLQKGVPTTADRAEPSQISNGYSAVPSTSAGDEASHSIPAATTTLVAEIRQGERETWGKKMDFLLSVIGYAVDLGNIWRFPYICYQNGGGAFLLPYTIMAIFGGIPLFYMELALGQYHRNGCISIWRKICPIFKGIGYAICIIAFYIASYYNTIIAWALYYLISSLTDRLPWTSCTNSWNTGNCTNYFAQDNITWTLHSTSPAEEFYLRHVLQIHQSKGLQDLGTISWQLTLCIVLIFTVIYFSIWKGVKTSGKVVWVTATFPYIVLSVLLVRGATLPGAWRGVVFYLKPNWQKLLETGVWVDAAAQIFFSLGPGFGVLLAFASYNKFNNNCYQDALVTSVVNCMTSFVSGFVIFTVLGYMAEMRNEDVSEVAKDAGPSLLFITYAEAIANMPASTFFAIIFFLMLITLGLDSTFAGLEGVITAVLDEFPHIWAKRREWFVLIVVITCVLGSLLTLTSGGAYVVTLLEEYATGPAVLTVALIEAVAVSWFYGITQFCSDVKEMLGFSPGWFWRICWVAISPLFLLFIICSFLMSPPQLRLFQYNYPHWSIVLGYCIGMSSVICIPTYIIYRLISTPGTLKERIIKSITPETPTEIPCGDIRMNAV
Mu-type opioid receptor, sequence (P33535 whole entry): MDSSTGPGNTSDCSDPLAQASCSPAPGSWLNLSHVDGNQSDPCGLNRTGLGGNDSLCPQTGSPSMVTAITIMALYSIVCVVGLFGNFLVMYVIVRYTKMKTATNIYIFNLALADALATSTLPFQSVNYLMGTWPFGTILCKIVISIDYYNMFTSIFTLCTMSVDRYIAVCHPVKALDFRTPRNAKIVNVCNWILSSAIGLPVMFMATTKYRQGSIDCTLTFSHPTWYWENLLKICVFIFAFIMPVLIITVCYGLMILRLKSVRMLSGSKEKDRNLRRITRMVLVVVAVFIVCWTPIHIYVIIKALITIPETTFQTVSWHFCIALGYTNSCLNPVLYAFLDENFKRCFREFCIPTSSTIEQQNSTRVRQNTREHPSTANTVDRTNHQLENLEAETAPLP
Melanocortin receptor 4, sequence (P32245 whole entry): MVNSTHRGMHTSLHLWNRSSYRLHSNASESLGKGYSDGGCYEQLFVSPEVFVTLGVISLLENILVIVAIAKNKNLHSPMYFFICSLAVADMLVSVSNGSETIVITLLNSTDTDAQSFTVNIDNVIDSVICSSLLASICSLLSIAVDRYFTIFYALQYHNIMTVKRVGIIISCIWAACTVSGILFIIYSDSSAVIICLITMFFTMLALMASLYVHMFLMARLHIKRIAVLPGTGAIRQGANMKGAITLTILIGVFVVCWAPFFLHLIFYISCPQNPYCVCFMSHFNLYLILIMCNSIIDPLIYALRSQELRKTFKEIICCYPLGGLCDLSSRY
Histamine H1 receptor, sequence (P31390 whole entry): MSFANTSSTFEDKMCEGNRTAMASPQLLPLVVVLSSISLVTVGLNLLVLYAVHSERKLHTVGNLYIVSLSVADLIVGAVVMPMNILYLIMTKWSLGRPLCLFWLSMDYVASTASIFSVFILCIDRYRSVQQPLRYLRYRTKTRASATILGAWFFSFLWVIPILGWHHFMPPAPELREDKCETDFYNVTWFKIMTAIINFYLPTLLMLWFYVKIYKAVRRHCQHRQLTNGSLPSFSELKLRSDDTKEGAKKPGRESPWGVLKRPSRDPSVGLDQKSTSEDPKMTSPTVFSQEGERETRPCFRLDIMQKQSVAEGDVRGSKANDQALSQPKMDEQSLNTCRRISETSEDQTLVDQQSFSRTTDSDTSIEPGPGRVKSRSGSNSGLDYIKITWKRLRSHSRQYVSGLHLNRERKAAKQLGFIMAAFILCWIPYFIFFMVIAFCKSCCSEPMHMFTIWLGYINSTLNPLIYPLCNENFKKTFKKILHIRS
Norepinephrine transporter, sequence (Q9WTR4 whole entry): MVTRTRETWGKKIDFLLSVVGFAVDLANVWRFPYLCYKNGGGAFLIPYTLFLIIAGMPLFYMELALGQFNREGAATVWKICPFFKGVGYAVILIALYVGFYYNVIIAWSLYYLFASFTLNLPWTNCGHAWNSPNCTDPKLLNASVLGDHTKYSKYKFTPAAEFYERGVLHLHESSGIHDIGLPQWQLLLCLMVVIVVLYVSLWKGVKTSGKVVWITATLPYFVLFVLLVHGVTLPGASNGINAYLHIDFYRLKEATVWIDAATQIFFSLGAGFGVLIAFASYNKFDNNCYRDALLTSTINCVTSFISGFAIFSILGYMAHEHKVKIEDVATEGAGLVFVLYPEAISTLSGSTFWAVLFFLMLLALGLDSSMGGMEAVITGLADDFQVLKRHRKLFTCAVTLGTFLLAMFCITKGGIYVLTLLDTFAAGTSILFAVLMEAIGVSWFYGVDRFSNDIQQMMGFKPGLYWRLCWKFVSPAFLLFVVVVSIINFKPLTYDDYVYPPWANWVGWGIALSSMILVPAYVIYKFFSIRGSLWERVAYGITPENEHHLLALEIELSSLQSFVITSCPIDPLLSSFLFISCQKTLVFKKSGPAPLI
Delta-type opioid receptor, sequence (P33533 whole entry): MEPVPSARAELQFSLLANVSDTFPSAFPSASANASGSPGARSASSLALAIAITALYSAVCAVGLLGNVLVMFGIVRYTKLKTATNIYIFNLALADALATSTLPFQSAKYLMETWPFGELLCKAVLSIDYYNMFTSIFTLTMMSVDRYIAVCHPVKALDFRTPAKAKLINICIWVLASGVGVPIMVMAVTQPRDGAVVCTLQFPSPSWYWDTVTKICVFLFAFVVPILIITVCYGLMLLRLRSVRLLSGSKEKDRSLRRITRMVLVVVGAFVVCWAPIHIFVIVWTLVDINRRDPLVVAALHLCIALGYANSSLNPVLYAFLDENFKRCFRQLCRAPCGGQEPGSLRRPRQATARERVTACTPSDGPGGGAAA

| Structure (SMILES) | IC50 (Melanocortin receptor 4) [nM] | IC50 (Histamine H1 receptor) [nM] | IC50 [1] [nM] | IC50 (Mu-type opioid receptor) [nM] | IC50 [2] [nM] | IC50 [3] [nM] | IC50 [4] [nM] | IC50 (D(2) dopamine receptor) [nM] | Activity (Rattus norvegicus) |
| --- | --- | --- | --- | --- | --- | --- | --- | --- | --- |
| CC(C)N1CCC(C(CN2CCN(CCCc3cc(F)ccc3-c3ccccc3)CC2)c2ccc(F)cc2)CC1 (racemic) | 52.2 | – | – | – | – | – | – | – | – |
| COc1ccc2ccccc2c1CCCCN1CCN(CC(c2ccc(F)cc2)C2CCN(C(C)C)CC2)CC1.Cl (racemic) | 40.3 | > 1000 | > 1000 | > 10000 | 2830 | 877 | > 10000 | > 1000 | – |
| CC(C)N1CCC(C(CN2CCN(CCCc3ccc(F)cc3-c3ccccc3)CC2)c2ccc(F)cc2)CC1 (racemic) | 52.7 | – | – | – | – | – | – | – | – |
| CC(C)N1CCC(C(CN2CCN(CCCc3ccccc3-c3cccc(F)c3)CC2)c2ccc(F)cc2)CC1.Cl (racemic) | 23.4 | > 1000 | > 1000 | > 10000 | 543 | 2140 | > 10000 | 805 | – |
| CC(C)N1CCC(C(CN2CCN(CCCc3ccccc3-c3ccc(F)cc3)CC2)c2ccc(F)cc2)CC1.Cl (racemic) | 14.5 | > 1000 | > 1000 | > 10000 | 729 | 3940 | > 10000 | 820 | – |

Continued, in another order:

| IC50 (Melanocortin receptor 4) [nM] | IC50 (Histamine H1 receptor) [nM] | IC50 [1] [nM] | IC50 (Mu-type opioid receptor) [nM] | IC50 [2] [nM] | IC50 [3] [nM] | IC50 [4] [nM] | IC50 (D(2) dopamine receptor) [nM] | Structure (SMILES) | Activity (Rattus norvegicus) |
| --- | --- | --- | --- | --- | --- | --- | --- | --- | --- |
| 98.6 | – | – | – | – | – | – | – | CC(C)N1CCC(C(CN2CCN(CCCc3ccccc3-c3ccccc3F)CC2)c2ccc(F)cc2)CC1 (racemic) | – |
| 18.3 | > 1000 | > 1000 | > 10000 | 491 | 723 | > 10000 | > 1000 | CC(C)N1CCC(C(CN2CCN(CCCc3c(F)cccc3-c3ccccc3)CC2)c2ccc(F)cc2)CC1.Cl (racemic) | – |
| 19.7 | > 1000 | > 1000 | > 10000 | 1180 | 953 | > 10000 | 423 | CC(C)N1CCC(C(CN2CCN(CCCc3ccccc3-c3ccccc3)CC2)c2ccc(F)cc2)CC1.Cl (racemic) | Active |
| 19.8 | > 1000 | > 1000 | > 10000 | 3940 | 3130 | > 10000 | 482 | CC(C)N1CCC(C(CN2CCN(CCCc3cccc(F)c3-c3ccccc3)CC2)c2ccc(F)cc2)CC1.Cl (racemic) | Active |
| 333 | – | – | – | – | – | – | – | CN1CCC(C(CN2CCN(CCCCc3cccc4ccccc34)CC2)c2ccc(F)cc2)CC1 (racemic) | – |
